Earlier results in US20200376001A1, “USE OF ANDROGEN FOR TREATING GASTROINTESTINAL DISORDERS” (priority 2012, published 2020).
Like-named read-outs stand apart in the source and are kept apart here.

What was measured:
[1] = compared with danazol
[2] = test system: Sex Hormone Binding Globulin (SHBG); settings: for decrease of SHBG (serum concentration): serum SHBG in the body after administration of synthetic androgen
[3] = target: T1, Sex Hormone Binding Globulin (SHBG) (Homo sapiens, UniProt P04278); settings: greater than that of testosterone
T1 sequence (P04278 30-402): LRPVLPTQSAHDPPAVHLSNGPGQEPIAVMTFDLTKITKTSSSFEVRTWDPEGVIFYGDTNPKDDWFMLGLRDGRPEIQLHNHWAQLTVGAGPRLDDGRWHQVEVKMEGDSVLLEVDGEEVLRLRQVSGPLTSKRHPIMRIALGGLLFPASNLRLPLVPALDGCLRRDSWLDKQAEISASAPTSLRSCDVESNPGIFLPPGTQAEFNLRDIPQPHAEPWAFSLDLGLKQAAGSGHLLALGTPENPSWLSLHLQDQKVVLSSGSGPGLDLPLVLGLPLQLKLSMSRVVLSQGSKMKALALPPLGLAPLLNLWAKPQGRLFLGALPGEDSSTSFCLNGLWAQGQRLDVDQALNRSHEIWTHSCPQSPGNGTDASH

| SMILES | side effects and hirsutism [1] | potency mg for mg relative to danazol ([2]; SHBG reduction, relative to danazol) [times] | decrease of SHBG (serum concentration) [2] [%] | affinity for SHBG relative to testosterone [3] | decrease of SHBG (serum concentration) ([2]; listed as Danazol) |
| --- | --- | --- | --- | --- | --- |
| C[C@]12Cc3c[nH]nc3C[C@@H]1CC[C@@H]1[C@@H]2CC[C@@]2(C)[C@H]1CC[C@]2(C)O [stanozolol] | reduces side effects and hirsutism caused by danazol | 100 | 80 | – | – |
| C[C@]12CC[C@H]3[C@@H](CCC4=CC(=O)CC[C@@H]43)[C@@H]1CC[C@@H]2O [Nandrolone, nandrolone] | – | – | – | about three | – |
| C#C[C@]1(O)CC[C@H]2[C@@H]3CCC4=Cc5oncc5C[C@]4(C)[C@H]3CC[C@@]21C [danazol] | – | – | 80 | – | does this as well |
